Data from article PMC5461819 (Peptides, 2015).
Values joined by “and” are separate entries in the source; they are usually repeats but may differ in a detail not shown here. Equal values may be shown once. “Also recorded” adds a separate entry of the source. Read-outs that look alike come from different tables or passages of the source.

Key:
[1] = target: T1, human BRS-3 (Homo sapiens, UniProt P32247); assay: Binding studies, inhibition of 125I-[D-Tyr6,β-Ala11,Phe13,Nle14]Bn-
T1 sequence (P32247 1-399): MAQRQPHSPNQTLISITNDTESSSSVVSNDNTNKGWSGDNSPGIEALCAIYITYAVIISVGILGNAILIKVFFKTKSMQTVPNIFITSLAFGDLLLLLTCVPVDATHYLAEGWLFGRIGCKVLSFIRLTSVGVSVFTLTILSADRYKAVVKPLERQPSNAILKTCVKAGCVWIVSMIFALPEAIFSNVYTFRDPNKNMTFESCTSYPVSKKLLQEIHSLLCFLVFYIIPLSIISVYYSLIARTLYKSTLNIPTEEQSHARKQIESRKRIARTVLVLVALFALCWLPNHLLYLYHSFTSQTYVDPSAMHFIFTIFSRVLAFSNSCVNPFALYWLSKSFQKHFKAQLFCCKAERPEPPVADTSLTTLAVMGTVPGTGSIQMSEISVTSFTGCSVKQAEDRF

[2] = target: T2, human GRPR (Homo sapiens, UniProt P30550); assay: Binding studies, hGRPR/BALB cells
T2 sequence (P30550 whole entry): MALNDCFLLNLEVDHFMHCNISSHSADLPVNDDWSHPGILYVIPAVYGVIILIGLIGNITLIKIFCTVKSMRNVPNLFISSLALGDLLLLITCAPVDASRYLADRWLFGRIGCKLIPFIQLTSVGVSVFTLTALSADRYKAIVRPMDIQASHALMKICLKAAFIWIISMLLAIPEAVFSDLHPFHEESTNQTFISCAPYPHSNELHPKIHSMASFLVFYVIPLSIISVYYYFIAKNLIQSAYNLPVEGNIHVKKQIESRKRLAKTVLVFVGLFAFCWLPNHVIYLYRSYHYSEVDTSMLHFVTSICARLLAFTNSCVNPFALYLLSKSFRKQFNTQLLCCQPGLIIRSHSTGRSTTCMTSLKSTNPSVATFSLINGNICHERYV

[3] = target: T3, human NMBR (Homo sapiens, UniProt P28336); assay: Binding studies, hNMBR/BALB cells
T3 sequence (P28336 whole entry): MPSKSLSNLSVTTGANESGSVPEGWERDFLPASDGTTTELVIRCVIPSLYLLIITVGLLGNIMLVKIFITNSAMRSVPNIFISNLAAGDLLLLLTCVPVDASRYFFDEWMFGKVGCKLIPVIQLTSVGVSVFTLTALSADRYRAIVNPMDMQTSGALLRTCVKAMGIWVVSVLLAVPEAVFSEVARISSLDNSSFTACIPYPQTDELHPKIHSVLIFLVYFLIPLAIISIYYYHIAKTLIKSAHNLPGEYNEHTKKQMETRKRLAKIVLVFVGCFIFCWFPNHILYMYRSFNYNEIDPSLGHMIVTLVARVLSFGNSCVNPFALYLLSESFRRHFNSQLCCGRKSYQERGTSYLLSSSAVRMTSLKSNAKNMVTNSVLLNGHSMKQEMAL

[4] = target: T4, rat GRPR (Rattus norvegicus, UniProt P52500); assay: Binding studies, rGRPR/AR42J cells
T4 sequence (P52500 whole entry): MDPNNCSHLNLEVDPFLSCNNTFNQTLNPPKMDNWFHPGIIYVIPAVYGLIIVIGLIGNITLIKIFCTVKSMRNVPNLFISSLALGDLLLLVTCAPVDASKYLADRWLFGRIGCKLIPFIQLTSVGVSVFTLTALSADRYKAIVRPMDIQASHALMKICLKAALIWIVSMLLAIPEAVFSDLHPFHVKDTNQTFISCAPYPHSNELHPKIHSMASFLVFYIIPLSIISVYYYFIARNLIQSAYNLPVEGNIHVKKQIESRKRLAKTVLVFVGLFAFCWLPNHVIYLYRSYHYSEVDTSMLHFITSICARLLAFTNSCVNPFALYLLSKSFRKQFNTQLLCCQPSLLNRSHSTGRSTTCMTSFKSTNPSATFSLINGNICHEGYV

[5] = target: T5, rat NMBR (Rattus norvegicus, UniProt P24053); assay: Binding studies, rNMBR/BALB cells
T5 sequence (P24053 1-390): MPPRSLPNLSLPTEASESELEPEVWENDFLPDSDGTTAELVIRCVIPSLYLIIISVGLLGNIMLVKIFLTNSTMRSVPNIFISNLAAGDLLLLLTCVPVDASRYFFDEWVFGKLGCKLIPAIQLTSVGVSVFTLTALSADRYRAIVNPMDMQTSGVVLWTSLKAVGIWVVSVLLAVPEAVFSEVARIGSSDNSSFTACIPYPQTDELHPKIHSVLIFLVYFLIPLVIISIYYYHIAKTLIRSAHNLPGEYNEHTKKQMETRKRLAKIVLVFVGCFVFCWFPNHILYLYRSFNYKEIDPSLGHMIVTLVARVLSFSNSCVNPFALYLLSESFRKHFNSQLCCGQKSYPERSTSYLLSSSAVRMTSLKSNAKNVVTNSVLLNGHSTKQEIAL

[6] = target: T6, mouse GRPR (Mus musculus, UniProt P21729); assay: Binding studies, mGRPR/BALB cells
T6 sequence (P21729 whole entry): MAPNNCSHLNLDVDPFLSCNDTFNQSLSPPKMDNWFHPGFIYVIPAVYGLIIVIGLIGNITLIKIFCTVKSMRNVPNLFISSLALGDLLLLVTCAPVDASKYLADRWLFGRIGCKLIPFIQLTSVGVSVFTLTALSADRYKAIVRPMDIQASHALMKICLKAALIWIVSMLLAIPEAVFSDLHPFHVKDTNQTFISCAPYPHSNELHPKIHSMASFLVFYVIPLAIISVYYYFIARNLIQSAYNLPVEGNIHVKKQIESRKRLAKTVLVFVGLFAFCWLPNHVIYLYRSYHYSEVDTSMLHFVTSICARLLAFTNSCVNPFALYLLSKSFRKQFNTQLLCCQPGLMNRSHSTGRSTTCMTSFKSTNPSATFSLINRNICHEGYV

[7] = target: T7, mouse NMBR (Mus musculus, UniProt O54799); assay: Binding studies, mNMBR/BALB cells
T7 sequence (O54799 1-390): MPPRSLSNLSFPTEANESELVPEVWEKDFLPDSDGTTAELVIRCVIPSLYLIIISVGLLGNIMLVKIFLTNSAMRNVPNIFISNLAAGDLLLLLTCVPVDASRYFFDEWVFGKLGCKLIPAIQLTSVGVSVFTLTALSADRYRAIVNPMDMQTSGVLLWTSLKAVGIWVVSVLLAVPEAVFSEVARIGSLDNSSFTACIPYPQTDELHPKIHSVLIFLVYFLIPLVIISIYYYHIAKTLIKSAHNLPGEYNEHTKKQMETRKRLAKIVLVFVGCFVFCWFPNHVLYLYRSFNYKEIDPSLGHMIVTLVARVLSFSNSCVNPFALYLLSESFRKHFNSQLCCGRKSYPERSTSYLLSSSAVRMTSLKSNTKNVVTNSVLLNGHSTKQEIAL

[8] = target: T1, human BRS-3; assay: [3H]Inositol phosphate generation; type: cell-based
[9] = target: T2, human GRPR; assay: [3H]Inositol phosphate generation, hGRPR/BALB cells; type: cell-based
[10] = target: T3, human NMBR; assay: [3H]Inositol phosphate generation, hNMBR/BALB cells; type: cell-based
[11] = target: T8, rat BRS-3 (Rattus norvegicus, UniProt Q8K418); assay: [3H]Inositol phosphate generation, rBRS-3/BALB cells; type: cell-based
T8 sequence (Q8K418 1-399): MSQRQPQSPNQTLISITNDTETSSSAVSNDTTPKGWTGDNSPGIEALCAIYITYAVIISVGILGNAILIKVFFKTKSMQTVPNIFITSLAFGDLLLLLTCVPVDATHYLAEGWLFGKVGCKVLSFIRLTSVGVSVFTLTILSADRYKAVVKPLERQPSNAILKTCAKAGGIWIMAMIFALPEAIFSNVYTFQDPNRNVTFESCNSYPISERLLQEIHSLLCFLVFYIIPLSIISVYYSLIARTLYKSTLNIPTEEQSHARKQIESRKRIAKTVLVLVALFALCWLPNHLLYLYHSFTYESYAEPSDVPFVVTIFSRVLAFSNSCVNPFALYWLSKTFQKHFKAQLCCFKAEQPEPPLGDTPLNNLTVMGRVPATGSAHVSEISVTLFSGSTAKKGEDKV

[12] = target: T4, rat GRPR; assay: [3H]Inositol phosphate generation, rGRPR/AR42J cells; type: cell-based
[13] = target: T5, rat NMBR; assay: [3H]Inositol phosphate generation, rNMBR/BALB cells; type: cell-based
[14] = target: T9, mouse BRS-3 (Mus musculus, UniProt O54798); assay: [3H]Inositol phosphate generation, mBRS-3/BALB cells; type: cell-based
T9 sequence (O54798 1-399): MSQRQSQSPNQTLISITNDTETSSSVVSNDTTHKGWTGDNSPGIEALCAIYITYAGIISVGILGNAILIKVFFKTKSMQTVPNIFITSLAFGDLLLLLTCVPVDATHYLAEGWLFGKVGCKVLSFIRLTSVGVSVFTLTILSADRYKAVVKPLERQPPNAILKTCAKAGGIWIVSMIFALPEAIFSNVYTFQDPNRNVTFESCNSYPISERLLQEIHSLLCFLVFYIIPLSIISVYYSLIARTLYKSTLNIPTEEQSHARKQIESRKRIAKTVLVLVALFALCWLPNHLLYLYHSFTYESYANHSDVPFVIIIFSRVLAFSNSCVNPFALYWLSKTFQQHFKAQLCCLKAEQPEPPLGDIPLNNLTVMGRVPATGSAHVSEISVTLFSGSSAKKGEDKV

[15] = target: T6, mouse GRPR; assay: [3H]Inositol phosphate generation, mGRPR/BALB cells; type: cell-based
[16] = target: T7, mouse NMBR; assay: [3H]Inositol phosphate generation, mNMBR/BALB cells; type: cell-based

Question: With O[C@@](Cc1nc(CC2(C(F)(F)F)CC2)c[nH]1)(c1ccc(-n2cccn2)cc1)C(F)(F)F [MK-5046, (2S)-1,1,1-trifluoro-2-[4-(1H-pyrazol-1-yl)phenyl]-3-(4-[[1-(trifluoromethyl)cyclopropyl]methyl]-1H-imidazol-2-yl)propan-2-ol] as the compound, how does the IC50 [1] read?
Answer: 102 ± 2 nM

Question: What about the IC50 [2] of the same compound?
Answer: > 3000 nM

Question: And the IC50 [3]?
Answer: > 3000 nM

Question: What about the IC50 [4] of the same compound?
Answer: > 3000 nM

Question: And the IC50 [5]?
Answer: > 3000 nM

Question: What about the IC50 [6] of the same compound?
Answer: > 3000 nM

Question: And the IC50 [7]?
Answer: > 3000 nM

Question: And the EC50 [8]?
Answer: 8.7 ± 0.47 nM

Question: And the “IC50/ EC50 hBRS-3/BALB” value ([8]; binding IC50 over [3H]IP EC50, hBRS-3/BALB cells, measure of receptor spareness)?
Answer: 11.7 and 11.72

Question: And the “maximal stimulated [3H]IP value” ([8]; hBRS-3/BALB cells, 1 μM, n=13)?
Answer: 70,268 ± 4,912 dpm

Question: What about the “efficacy for activating PLC” value ([8]; human BRS-3 cells) of the same compound?
Answer: full efficacious; also recorded: fully efficacious

Question: What about the “increase on activating PLC” value ([8]; human BRS-3 containing cells) of the same compound?
Answer: 3.8 fold

Question: And the EC50 [9]?
Answer: > 3000 nM

Question: What about the EC50 [10] of the same compound?
Answer: > 3000 nM

Question: And the EC50 [11]?
Answer: 0.23 ± 0.08 nM

Question: What about the “maximal stimulation of [3H]IP” value ([11]; rBRS-3/BALB cells, 1 μM, n=7) of the same compound?
Answer: 21,812 ± 1,721 dpm

Question: And the “more potent in rBRS-3 than in hBRS-3” value ([11]; rBRS-3 versus hBRS-3)?
Answer: 38 fold

Question: And the “more potent in rBRS-3 than in mBRS-3” value ([11]; rBRS-3 versus mBRS-3)?
Answer: 22 fold

Question: What about the “efficacy for activating PLC” value ([11]; rat BRS-3 cells) of the same compound?
Answer: full efficacious; also recorded: fully efficacious

Question: What about the “increase on activating PLC” value ([11]; rat BRS-3 containing cells) of the same compound?
Answer: 5.8 fold

Question: What about the EC50 [12] of the same compound?
Answer: > 3000 nM

Question: And the EC50 [13]?
Answer: > 3000 nM

Question: What about the EC50 [14] of the same compound?
Answer: 5.24 ± 0.36 nM

Question: What about the “maximal stimulation of [3H]IP” value ([14]; mBRS-3/BALB cells, 1 μM, n=3) of the same compound?
Answer: 62,992 ± 9,298 dpm

Question: What about the “efficacy for activating PLC” value ([14]; mouse BRS-3 cells) of the same compound?
Answer: full efficacious; also recorded: fully efficacious

Question: What about the “increase on activating PLC” value ([14]; mouse BRS-3 containing cells) of the same compound?
Answer: 3.9 fold

Question: And the EC50 [15]?
Answer: > 3000 nM

Question: What about the EC50 [16] of the same compound?
Answer: > 3000 nM

Question: How did the IC50 [1] turn out when CSCC[C@H](NC(=O)[C@H](Cc1ccccc1)NC(=O)[C@H](Cc1c[nH]cn1)NC(=O)CNC(=O)[C@@H](NC(=O)[C@H](C)NC(=O)[C@H](Cc1c[nH]c2ccccc12)NC(=O)[C@H](CC(C)C)NC(=O)[C@H](CC(N)=O)NC(=O)CN)[C@@H](C)O)C(N)=O [NMB, neuromedin B] was run?
Answer: > 3000 nM

Question: And the IC50 [2]?
Answer: 31.5 ± 2.4 nM

Question: And the IC50 [3]?
Answer: 0.6 ± 0.02 nM

Question: And the IC50 [4]?
Answer: 80 ± 5 nM

Question: What about the “lower affinity for rGRPR than for rNMBR” value ([4]; rat receptors) of the same compound?
Answer: 66 fold

Question: What about the IC50 [5] of the same compound?
Answer: 1.21 ± 0.15 nM

Question: What about the IC50 [6] of the same compound?
Answer: 170 ± 5 nM

Question: And the IC50 [7]?
Answer: 0.6 ± 0.02 nM

Question: And the EC50 [8]?
Answer: > 3000 nM

Question: And the EC50 [9]?
Answer: 530 ± 23 nM

Question: And the EC50 ([10]; EC50 Human NMBR hNMBR/BALB, [3H]IP production, 60 min, 37°C)?
Answer: 2.5 nM and 2.52 nM

Question: What about the EC50 [11] of the same compound?
Answer: > 3000 nM

Question: What about the EC50 ([12]; EC50 Rat GRPR rGRPR/AR42J, [3H]IP production, 60 min, 37°C) of the same compound?
Answer: 17 nM

Question: What about the EC50 ([13]; EC50 Rat NMBR rNMBR/BALB, [3H]IP production, 60 min, 37°C) of the same compound?
Answer: 1.6 nM and 1.59 nM

Question: What about the EC50 [14] of the same compound?
Answer: > 3000 nM

Question: And the EC50 [15]?
Answer: 23 ± 8 nM

Question: And the EC50 ([16]; EC50 Mouse NMBR mNMBR/BALB, [3H]IP production, 60 min, 37°C)?
Answer: 4.7 nM and 4.73 nM
